These results are taken from ChEMBL document CHEMBL1131749, “Landomycin A inhibits DNA synthesis and G1/S cell cycle progression” (1999).

Common to all, as to assay type: functional
The species named for assay [1] is Mus musculus. Briefly: Inhibition of uptake of [3H]thymidine into DNA by murine smooth cells at a concentration of 20 nM after 24 hours.
The species entered for assay [2] is Mus musculus. Briefly: Inhibition of uptake of [3H]thymidine into DNA by murine smooth cells at a concentration of 200 nM after 24 hours.
The species entered for assay [3] is Mus musculus. Briefly: Inhibition of uptake of [3H]thymidine into DNA by murine smooth cells at a concentration of 80 nM after 16 hours.
The species named for assay [4] is Mus musculus. The assay is described as follows: Inhibition of uptake of [3H]-thymidine into DNA by murine smooth cells at a concentration of 80 nM after 20 hours.
Assay [5] is filed under the species Mus musculus. Briefly: Inhibition of uptake of [3H]thymidine into DNA by murine smooth cells at a concentration of 200 nM after 20 hours.
The species named for assay [6] is Mus musculus. Briefly: Inhibition of uptake of [3H]thymidine into DNA by murine smooth cells at a concentration of 200 nM after 16 hours.
Assay [7] is filed under the species Mus musculus. The assay is described as follows: Inhibition of uptake of [3H]thymidine into DNA by murine smooth cells at a concentration of 20 nM after 20 hours.
The species named for assay [8] is Mus musculus. Briefly: Inhibition of uptake of [3H]thymidine into DNA by murine smooth cells at a concentration of 20 nM after 16 hours.
Assay [9] is filed under the species Mus musculus. The assay is described as follows: Inhibition of uptake of [3H]thymidine into DNA by murine smooth cells at a concentration of 80 nM after 24 hours.

As for `Cc1cc(O)c2c(c1)C[C@@H](O)C1=C2C(=O)c2c(O)ccc(O[C@H]3C[C@@H](O)[C@H](O[C@H]4C[C@@H](O[C@H]5CC[C@H](O[C@H]6C[C@@H](O)[C@H](O[C@H]7C[C@@H](O[C@H]8CC[C@H](O)[C@H](C)O8)[C@H](O)[C@@H](C)O7)[C@@H](C)O6)[C@H](C)O5)[C@H](O)[C@@H](C)O4)[C@@H](C)O3)c2C1=O` [LANDOMYCIN A], the Inhibition in the assay filed under Mus musculus [1] was determined as 65000 c.p.m./Abs; in the assay filed under Mus musculus [2], 20000 c.p.m./Abs; in the assay listed under Mus musculus [3], 5000 c.p.m./Abs; in the assay filed under Mus musculus [4] it was 30000 c.p.m./Abs; in the assay filed under Mus musculus [5] it was 5000 c.p.m./Abs; in the assay filed under Mus musculus [6], 0 c.p.m./Abs. Further, the Inhibition was 45000 c.p.m./Abs in the assay listed under Mus musculus [7], 10000 c.p.m./Abs in the assay filed under Mus musculus [8] and 60000 c.p.m./Abs in the assay filed under Mus musculus [9].
